Assay results reported in patent US7507739B2, “6-[(substituted)phenyl]triazolopyrimidines as anticancer agents” (Wyeth, priority 2003, dated 2009).

Tested on: HeLa cells
Test: Cell cycle analysis with HeLa cells
Type: cell-based, human
Conditions: 18 hr
Description: HeLa cells are harvested by trypsinization, washed, counted and distributed to wells of 12-well plates at 125,000 cells per well in 2 mL medium. Cells are cultured overnight. […] Cells are continued in culture for 18 hr after compound addition, then cells in each well are harvested (taking care to recover both adherent and non-adherent cells) and processed using the CycleTEST PLUS kit (Becton Dickinson Immunocytometry Systems, San Jose, Calif.). Flow cytometry is done with a FACSort instrument (Becton Dickinson).
This procedure measures the percentages of cells in a population that are in the G1, S, and G2/M phases of the cell cycle. It utilizes staining of cell nuclei with propidium iodide and analysis by flow cytometry.

## CNCCCOc1cc(F)c(-c2c(Cl)nc3ncnn3c2N[C@@H](C)C(F)(F)F)c(F)c1.Cl [Example 2a, 5-Chloro-6-{2,6-difluoro-4-[3-(methylamino)propoxy]phenyl}-N-[(1S)-2,2,2-trifluoro-1-methylethyl][1,2,4]triazolo[1,5-a]pyrimidin-7-amine hydrogen chloride]
20 nM
  Percent in Cell Cycle Phase >4N: 2%
  Percent in Cell Cycle Phase Apop: 28%
  Percent in Cell Cycle Phase G1: 41%
  Percent in Cell Cycle Phase G2/M: 16%
  Percent in Cell Cycle Phase S: 14%
30 nM
  Percent in Cell Cycle Phase >4N: 2%
  Percent in Cell Cycle Phase Apop: 62%
  Percent in Cell Cycle Phase G1: 12%
  Percent in Cell Cycle Phase G2/M: 16%
  Percent in Cell Cycle Phase S: 10%
40 nM
  Percent in Cell Cycle Phase >4N: 2%
  Percent in Cell Cycle Phase Apop: 44%
  Percent in Cell Cycle Phase G1: 5%
  Percent in Cell Cycle Phase G2/M: 39%
  Percent in Cell Cycle Phase S: 9%
50 nM
  Percent in Cell Cycle Phase >4N: 4%
  Percent in Cell Cycle Phase Apop: 25%
  Percent in Cell Cycle Phase G1: 5%
  Percent in Cell Cycle Phase G2/M: 58%
  Percent in Cell Cycle Phase S: 9%
60 nM
  Percent in Cell Cycle Phase >4N: 4%
  Percent in Cell Cycle Phase Apop: 24%
  Percent in Cell Cycle Phase G1: 4%
  Percent in Cell Cycle Phase G2/M: 58%
  Percent in Cell Cycle Phase S: 9%
70 nM
  Percent in Cell Cycle Phase >4N: 4%
  Percent in Cell Cycle Phase Apop: 22%
  Percent in Cell Cycle Phase G1: 6%
  Percent in Cell Cycle Phase G2/M: 57%
  Percent in Cell Cycle Phase S: 11%
80 nM
  Percent in Cell Cycle Phase >4N: 4%
  Percent in Cell Cycle Phase Apop: 26%
  Percent in Cell Cycle Phase G1: 7%
  Percent in Cell Cycle Phase G2/M: 52%
  Percent in Cell Cycle Phase S: 11%
90 nM
  Percent in Cell Cycle Phase >4N: 4%
  Percent in Cell Cycle Phase Apop: 30%
  Percent in Cell Cycle Phase G1: 7%
  Percent in Cell Cycle Phase G2/M: 46%
  Percent in Cell Cycle Phase S: 13%
100 nM
  Percent in Cell Cycle Phase >4N: 4%
  Percent in Cell Cycle Phase Apop: 34%
  Percent in Cell Cycle Phase G1: 7%
  Percent in Cell Cycle Phase G2/M: 41%
  Percent in Cell Cycle Phase S: 15%
110 nM
  Percent in Cell Cycle Phase >4N: 4%
  Percent in Cell Cycle Phase Apop: 37%
  Percent in Cell Cycle Phase G1: 9%
  Percent in Cell Cycle Phase G2/M: 37%
  Percent in Cell Cycle Phase S: 14%
120 nM
  Percent in Cell Cycle Phase >4N: 4%
  Percent in Cell Cycle Phase Apop: 39%
  Percent in Cell Cycle Phase G1: 8%
  Percent in Cell Cycle Phase G2/M: 36%
  Percent in Cell Cycle Phase S: 15%

## CNCCCOc1cc(F)c(-c2c(Cl)nc3ncnn3c2NCC(F)(F)F)c(F)c1.Cl [Example 3a, 5-Chloro-6-{2,6-difluoro-4-[3-(methylamino)propoxy]phenyl}-N-(2,2,2-trifluoroethyl)[1,2,4]triazolo[1,5-a]pyrimidin-7-amine hydrogen chloride Salt]
20 nM
  Percent in Cell Cycle Phase >4N: 1%
  Percent in Cell Cycle Phase Apop: 29%
  Percent in Cell Cycle Phase G1: 42%
  Percent in Cell Cycle Phase G2/M: 16%
  Percent in Cell Cycle Phase S: 12%
30 nM
  Percent in Cell Cycle Phase >4N: 2%
  Percent in Cell Cycle Phase Apop: 55%
  Percent in Cell Cycle Phase G1: 11%
  Percent in Cell Cycle Phase G2/M: 21%
  Percent in Cell Cycle Phase S: 11%
40 nM
  Percent in Cell Cycle Phase >4N: 3%
  Percent in Cell Cycle Phase Apop: 50%
  Percent in Cell Cycle Phase G1: 6%
  Percent in Cell Cycle Phase G2/M: 31%
  Percent in Cell Cycle Phase S: 10%
50 nM
  Percent in Cell Cycle Phase >4N: 3%
  Percent in Cell Cycle Phase Apop: 32%
  Percent in Cell Cycle Phase G1: 5%
  Percent in Cell Cycle Phase G2/M: 52%
  Percent in Cell Cycle Phase S: 8%
60 nM
  Percent in Cell Cycle Phase >4N: 4%
  Percent in Cell Cycle Phase Apop: 25%
  Percent in Cell Cycle Phase G1: 4%
  Percent in Cell Cycle Phase G2/M: 58%
  Percent in Cell Cycle Phase S: 9%
70 nM
  Percent in Cell Cycle Phase >4N: 4%
  Percent in Cell Cycle Phase Apop: 21%
  Percent in Cell Cycle Phase G1: 5%
  Percent in Cell Cycle Phase G2/M: 61%
  Percent in Cell Cycle Phase S: 9%
80 nM
  Percent in Cell Cycle Phase >4N: 5%
  Percent in Cell Cycle Phase Apop: 24%
  Percent in Cell Cycle Phase G1: 5%
  Percent in Cell Cycle Phase G2/M: 57%
  Percent in Cell Cycle Phase S: 11%
90 nM
  Percent in Cell Cycle Phase >4N: 4%
  Percent in Cell Cycle Phase Apop: 23%
  Percent in Cell Cycle Phase G1: 5%
  Percent in Cell Cycle Phase G2/M: 60%
  Percent in Cell Cycle Phase S: 8%
100 nM
  Percent in Cell Cycle Phase >4N: 5%
  Percent in Cell Cycle Phase Apop: 25%
  Percent in Cell Cycle Phase G1: 5%
  Percent in Cell Cycle Phase G2/M: 55%
  Percent in Cell Cycle Phase S: 10%
110 nM
  Percent in Cell Cycle Phase >4N: 5%
  Percent in Cell Cycle Phase Apop: 26%
  Percent in Cell Cycle Phase G1: 6%
  Percent in Cell Cycle Phase G2/M: 54%
  Percent in Cell Cycle Phase S: 10%
120 nM
  Percent in Cell Cycle Phase >4N: 5%
  Percent in Cell Cycle Phase Apop: 30%
  Percent in Cell Cycle Phase G1: 6%
  Percent in Cell Cycle Phase G2/M: 48%
  Percent in Cell Cycle Phase S: 12%
